Measurements from patent US20260355196A1, “INHIBITORS AND DEGRADERS OF PIP4K PROTEIN” (Larkspur Biosciences, Inc., priority 2023, published 2026).

Each compound was assayed against T1, PIP4K2C (Homo sapiens, UniProt Q8TBX8) (assay: Enzyme Binding Assay (KINOMEscan): active site-directed competition binding to an immobilized ligand). Conditions: 11-point dose response, duplicate, top concentration 5 micromolar; read-out: Pip4k2c Kd: IC50.
T1 sequence (Q8TBX8 1-421): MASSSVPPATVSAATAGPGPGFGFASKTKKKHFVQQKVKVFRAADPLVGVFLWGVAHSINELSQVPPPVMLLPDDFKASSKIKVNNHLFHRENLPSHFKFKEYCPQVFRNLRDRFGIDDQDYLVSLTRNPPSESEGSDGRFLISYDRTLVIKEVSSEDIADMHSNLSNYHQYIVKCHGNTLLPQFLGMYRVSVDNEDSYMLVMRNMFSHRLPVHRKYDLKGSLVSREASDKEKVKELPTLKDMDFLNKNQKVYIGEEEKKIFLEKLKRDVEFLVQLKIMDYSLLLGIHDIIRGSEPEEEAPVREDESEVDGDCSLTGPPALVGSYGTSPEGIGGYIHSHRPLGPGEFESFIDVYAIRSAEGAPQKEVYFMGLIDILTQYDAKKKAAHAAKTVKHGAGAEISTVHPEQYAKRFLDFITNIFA
Parameters: purchased Eurofins DiscoverX, San Diego, CA 87-0007-1094
Outline: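 Active site-directed competition binding against an immobilized ligand. 11-point dose-response in duplicate, top concentration 5 micromolar; IC50 from a Hill equation fitted by the Levenberg-Marquardt algorithm.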

| IC50 [nM] | Structure (SMILES) |
| --- | --- |
| < 500 | NC(=O)[C@@H]1CCC[C@H](Nc2ncc(Cl)c(-c3cccc(-n4ccc(F)cc4=O)c3)n2)C1 (racemic) [Compound 168, rac-(1R,3S)-3-((5-chloro-4-(3-(4-fluoro-2-oxopyridin-1 (2H)-yl)phenyl)pyrimidin-2-yl)amino)cyclohexane-1-carboxamide] |
| < 500 | CC(=O)N[C@H]1CC[C@H](Nc2ncc(Cl)c(-c3cccc(-c4ccccc4)c3)n2)CC1 [Compound 32, N-(trans-4-((4-([1,1′-biphenyl]-3-yl)-5-chloropyrimidin-2-yl)amino)cyclohexyl)acetamide] |
| < 500 | O=C1CCC(Nc2ncc(Cl)c(-c3cccc(-c4ccccc4)c3)n2)CN1 (stereo not shown) [Compound 17, 5-((4-([1,1′-biphenyl]-3-yl)-5-chloropyrimidin-2-yl)amino)piperidin-2-one] |
| < 500 | CNC(=O)[C@H]1CC[C@@H](Nc2ncc(Cl)c(-c3cccc(-n4ccccc4=O)c3)n2)CC1 [Compound 104, cis-(1s,4s)-4-((5-chloro-4-(3-(2-oxopyridin-1 (2H)-yl)phenyl)pyrimidin-2-yl)amino)-N-methylcyclohexane-1-carboxamide] |
| < 500 | NC(=O)[C@@H]1CCC[C@H](Nc2ncc(F)c(-c3cccc(-c4ccccc4)c3)n2)C1 [Compound 612, (1R,3S)-3-((4-([1,1′-biphenyl]-3-yl)-5-fluoropyrimidin-2-yl)amino) cyclohexane-1-carboxamide] |
| < 500 | CC(=O)N1CCC(Nc2ncc(Cl)c(-c3cccc(-c4ccccc4)c3)n2)CC1 [Compound 23, 1-(4-((4-([1,1′-biphenyl]-3-yl)-5-chloropyrimidin-2-yl)amino)piperidin-1-yl)ethan-1-one] |
| < 500 | CC(=O)N1CCC(Nc2ncc(F)c(N3CCCC(c4ccc[nH]c4=O)C3)n2)CC1 (stereo not shown) [Compound 196, 3-[1-[2-[(1-acetyl-4-piperidyl)amino]-5-fluoro-pyrimidin-4-yl]-3-piperidyl]-1H-pyridin-2-one] |
| < 500 | CC(=O)N[C@H]1CC[C@H](Nc2ncc(Cl)c(-c3cccc(-c4ccc[nH]c4=O)c3)n2)CC1 [Compound 154, trans-N-((1r,4r)-4-((5-chloro-4-(3-(2-oxo-1,2-dihydropyridin-3-yl)phenyl)pyrimidin-2-yl)amino)cyclohexyl)acetamide] |
| < 500 | CC(=O)N[C@H]1CC[C@H](Nc2ncc(F)c(-c3cccc(C4(O)COC4)c3)n2)CC1 [Compound 176, N-(trans-4-((5-fluoro-4-(3-(3-hydroxyoxetan-3-yl)phenyl)pyrimidin-2-yl)amino)cyclohexyl)acetamide] |
| < 500 | CC(=O)N[C@H]1CC[C@H](Nc2ncc(F)c(-c3ccnc(N4CCCOC4=O)c3)n2)CC1 [Compound 266, trans-N-(4-((5-fluoro-4-(2-(2-oxo-1,3-oxazinan-3-yl)pyridin-4-yl)pyrimidin-2-yl)amino)cyclohexyl)acetamide] |
| < 500 | CNC(=O)[C@H]1CC[C@H](Nc2ncc(Cl)c(-c3cnn(C4CCCCC4)c3)n2)CC1 [Compound 118, trans-(1r,4r)-4-((5-chloro-4-(1-cyclohexyl-1H-pyrazol-4-yl)pyrimidin-2-yl)amino)-N-methylcyclohexane-1-carboxamide] |
| < 500 | NC(=O)[C@H]1CC[C@H](Nc2ncc(F)c(-c3cccc(N4CCCCC4)c3)n2)CC1 [Compound 615, trans-4-((5-fluoro-4-(3-(piperidin-1-yl)phenyl)pyrimidin-2-yl)amino)cyclohexane-1-carboxamide] |
| < 500 | NC(=O)[C@H]1CC[C@H](Nc2ncc(F)c(-c3cccc(N4CCCOC4=O)n3)n2)CC1 [Compound 621, trans-4-((5-fluoro-4-(6-(2-oxo-1,3-oxazinan-3-yl)pyridin-2-yl)pyrimidin-2-yl)amino)cyclohexane-1-carboxamide] |
| < 500 | NC(=O)[C@@H]1CCC[C@H](Nc2ncc(F)c(-c3ccnc(N4CCOCC4=O)c3)n2)C1 (relative stereo) [Compound 629, cis-3-((5-fluoro-4-(2-(3-oxomorpholino)pyridin-4-yl)pyrimidin-2-yl)amino)cyclohexane-1-carboxamide] |
| < 500 | NC(=O)[C@H]1CC[C@H](Nc2ncc(F)c(-c3cccc(-c4ccc[nH]c4=O)c3)n2)CC1 [Compound 254, trans-(1r,4r)-4-((5-fluoro-4-(3-(2-oxo-1,2-dihydropyridin-3-yl)phenyl)pyrimidin-2-yl)amino)cyclohexane-1-carboxamide] |
| < 500 | NC(=O)[C@H]1CC[C@H](Nc2ncc(F)c(-c3ccnc(N4CCCOC4=O)c3)n2)CC1 [Compound 622, trans-4-[[5-fluoro-4-[2-(2-oxo-1,3-oxazinan-3-yl)-4-pyridyl]pyrimidin-2-yl]amino]cyclohexanecarboxamide] |

| IC50 [nM] | Structure (SMILES) |
| --- | --- |
| < 500 | CC(=O)N1CCC(Nc2ncc(F)c(-c3cccc(N4CCC[C@H](O)C4)c3)n2)CC1 [Compound 210, (S)-1-(4-((5-fluoro-4-(3-(3-hydroxypiperidin-1-yl)phenyl)pyrimidin-2-yl)amino)piperidin-1-yl)ethan-1-one] |
| < 500 | CC(=O)N1CCC(Nc2ncc(F)c(-n3cc(C4CC4)cn3)n2)CC1 [Compound 219, 1-(4-((4-(4-cyclopropyl-1H-pyrazol-1-yl)-5-fluoropyrimidin-2-yl)amino)piperidin-1-yl)ethan-1-one] |
| 1000 to 5000 | CC(=O)N[C@H]1CC[C@H](Nc2ncc(F)c(N3CCC[C@@H](C(=O)NC4CC4)C3)n2)CC1 [Compound 197, trans-(R)-1-(2-((4-acetamidocyclohexyl)amino)-5-fluoropyrimidin-4-yl)-N-cyclopropylpiperidine-3-carboxamide] |
| < 500 | O=C(CC1CCNCC1)N1CCC(Nc2ncc(Cl)c(-c3cccc(-c4ccccc4)c3)n2)CC1 [Compound 5, 1-(4-((4-([1,1′-biphenyl]-3-yl)-5-chloropyrimidin-2-yl)amino)piperidin-1-yl)-2-(piperidin-4-yl)ethan-1-one] |
| 1000 to 5000 | NC(=O)[C@H]1CCC[C@@H](Nc2ncc(Cl)c(-c3ccc(F)cc3)n2)C1 (relative stereo) [Compound 28, cis-3-((5-chloro-4-(4-fluorophenyl)pyrimidin-2-yl)amino)cyclohexane-1-carboxamide] |
| < 500 | CC(=O)N1CCC(C(=O)N2CCC(Nc3ncc(Cl)c(-c4cccc(-c5ccccc5)c4)n3)CC2)CC1 [Compound 4, 1-(4-(4-((4-([1,1′-biphenyl]-3-yl)-5-chloropyrimidin-2-yl)amino)piperidine-1-carbonyl)piperidin-1-yl)ethan-1-one] |
| < 500 | CNC(=O)[C@H]1CC[C@@H](Nc2ncc(Cl)c(-c3cccc(-c4ccc[nH]c4=O)c3)n2)CC1 [Compound 138, cis-(1s,4s)-4-((5-chloro-4-(3-(2-oxo-1,2-dihydropyridin-3-yl)phenyl)pyrimidin-2-yl)amino)-N-methylcyclohexane-1-carboxamide] |
| < 500 | NC(=O)[C@@H]1CCC[C@H](Nc2ncc(F)c(-c3cccc(-c4cccc(=O)[nH]4)c3)n2)C1 (relative stereo) [Compound 112, cis-3-((5-fluoro-4-(3-(6-oxo-1,6-dihydropyridin-2-yl)phenyl)pyrimidin-2-yl)amino)cyclohexane-1-carboxamide] |
| 500 to 1000 | CC(=O)N1CCC(Nc2ncc(Cl)c(C3CCN(C(=O)c4ccc(F)cc4)C3)n2)CC1 (stereo not shown) [Compound 127, 1-(4-((5-chloro-4-(1-(4-fluorobenzoyl)pyrrolidin-3-yl)pyrimidin-2-yl)amino)piperidin-1-yl)ethan-1-one] |
| < 500 | CC(=O)N1CCC(Nc2ncc(F)c(-c3cccc(N4C[C@H](O)CC4=O)c3)n2)CC1 [Compound 237, (4R)-1-[3-[2-[(1-acetyl-4-piperidyl)amino]-5-fluoro-pyrimidin-4-yl]phenyl]-4-hydroxy-pyrrolidin-2-one] |
| < 500 | CC(=O)N[C@H]1CC[C@H](Nc2ncc(Cl)c(-c3cccc(-c4ccc(F)cc4)n3)n2)CC1 [Compound 158, trans-N-((1r,4r)-4-((5-chloro-4-(6-(4-fluorophenyl)pyridin-2-yl)pyrimidin-2-yl)amino)cyclohexyl)acetamide] |
| < 500 | CC(=O)N[C@H]1CC[C@H](Nc2ncc(F)c(-c3cccc(N4CCCCC4)c3)n2)CC1 [Compound 616, trans-N-(4-((5-fluoro-4-(3-(piperidin-1-yl)phenyl)pyrimidin-2-yl)amino)cyclohexyl)acetamide] |
| 500 to 1000 | NC(=O)[C@H]1CCC[C@@H](Nc2ncc(F)c(-c3cnn(-c4ccc(F)cc4)c3)n2)C1 (relative stereo) [Compound 43, cis-3-((5-fluoro-4-(1-(4-fluorophenyl)-1H-pyrazol-4-yl)pyrimidin-2-yl)amino)cyclohexane-1-carboxamide] |
| < 500 | CC(=O)N[C@H]1CC[C@H](Nc2ncc(F)c(-c3cccc(N4CCCOC4=O)n3)n2)CC1 [Compound 624, N-(trans-4-((5-fluoro-4-(6-(2-oxo-1,3-oxazinan-3-yl)pyridin-2-yl)pyrimidin-2-yl)amino)cyclohexyl)acetamide] |
| < 500 | CNC(=O)[C@H]1C[C@H](Nc2ncc(Cl)c(-c3cccc(-c4ccc(F)cc4)n3)n2)C1 [Compound 140, trans-(1r,3r)-3-((5-chloro-4-(6-(4-fluorophenyl)pyridin-2-yl)pyrimidin-2-yl)amino)-N-methylcyclobutane-1-carboxamide] |
